# Measured values reported in publication PMC12406255, “Engineering Peptide Modulators for T‑Cell Migration by Structural Scaffold Matching” (Journal of Medicinal Chemistry, 2025).
# Positions of bridges follow the written chain, without caps; N, C: chain ends. Non-standard residues stand in square brackets, D forms with d. Residues, ends and D or L forms follow the SMILES beside them. Nle = CCCC[C@H](N)C(=O)O
# Tested on: CD4+ cells of MS patients
# Assay: Transwell migration assay with PBMC of MS patients, CD4+ cells
# Type: cell-based, human
# Settings: PBMC of treatment-naive MS patients; p = 0.0005
# Procedure: 5 Activity of the novel VhTI-pep 2 and pepitem on patient lymphocytes. PPBMCs were isolated from the blood of MS patients with a very recent disease flare receiving no immunosuppressive or immunomodulatory treatment in the past. The effect of the linear pepitem and VhTI-pep 2 was tested for the T-cell populations (A) CD3^+, (B) Th1, (C) CD4^+, (D) memory CD4^+, (E) CD8^+, and (F) memory CD8^+ cells. Data are shown as mean ± SD for 4 independent measurements. Statistical analysis was performed on the level of total counted cells using repeated measures one-way ANOVA with Dunnett’s post hoc test. Statistical significance is indicated as n.s. (not significant), * p < 0.05; ** p < 0.01; *** p < 0.001.
# Human microvascular endothelial cells (HMEC-1 cells, Cytion, Eppelheim, Germany) were cultured in MCDB-131 medium (with 2.2 g/L sodium bicarbonate, without L-glutamine, PAN-Biotech Aidenbach, Germany) supplemented with 10% fetal bovine serum (FBS, Capricorn Scientific, Ebsdorfergrund, Germany), 100 units/ml penicillin-streptomycin (Sigma-Aldrich) 10 ng/mL epidermal growth factor (BioLegend, San Diego, US), 1 μg/mL hydrocortisone (Sigma-Aldrich), and 10 mM L-glutamine (Sigma-Aldrich). For experiments, the cells were used between passage numbers 4–9. […]
structure (smiles),measurement,value
"CCCC[C@@H]1NC(=O)[C@H](C(C)C)NC(=O)[C@H](CCCCN)NC(=O)[C@@H](NC(=O)[C@H](CCC(N)=O)NC(=O)[C@H](CCC(=O)O)NC(C)=O)CSSC[C@@H](C(=O)N[C@@H](CCC(=O)O)C(=O)N[C@@H](CCCCN)C(N)=O)NC(=O)[C@H](CC(N)=O)NC(=O)[C@H](CC(=O)O)NC(=O)[C@H](CC(C)C)NC(=O)[C@@H]2CSSC[C@H](NC1=O)C(=O)N[C@@H](Cc1ccc(O)cc1)C(=O)N[C@@H](C)C(=O)N[C@@H](CCC(N)=O)C(=O)NCC(=O)N[C@@H](C)C(=O)N[C@@H](CCC(=O)O)C(=O)N[C@@H](CC(C)C)C(=O)N1CCC[C@H]1C(=O)N[C@@H](CCC(=O)O)C(=O)N[C@@H](CC(C)C)C(=O)N[C@@H](CC(C)C)C(=O)N[C@@H](CCCNC(=N)N)C(=O)N[C@@H](CCCNC(=N)N)C(=O)N2 [VhTI-pep 2] (Ac-EQCKV[Nle]CYAQGAELPELLRRCLDNCEK-NH2; disulfide 3-25, 7-21)",migration of CD4+ cells of MS patients (in words),significantly reduced
